From US9657092B2, “S100A4 antibodies and therapeutic uses thereof” (LYKERA BIOMED SA, priority 2010, dated 2017)

System: MiaPACA-2 cells
Test: Cytotoxic effect measured by hexosaminidase activity
Type: cell-based
Conditions: Homo sapiens, MIA PaCa-2; gemcitabine alone, 72 h; read-out: EC50 cell viability
Description: Briefly, MiaPACA-2 cells were plated onto 96-well cell culture plates (5×10^3 cells/well) in 50 μl of DMEM medium. […] After removing the culture media cells were washed once with PBS. Sixty microliters of substrate solution (p-nitrophenol-N-acetyl-beta-D-glucosamide 7.5 mM, sodium citrate 0.1 M, 0.25% Triton X-100, pH 5.0) was added to each well and plates were incubated at 37° C. for 2 hours; after this incubation time, a bright yellow appears and plates were developed by adding 90 μl of developer solution (Glycine 50 mM, EDTA 5 mM, pH 10.4), and the absorbance at 450 nm was measured by using a multi-well scanning spectrophotometer. Data analysis was done normalizing the results with the negative control (untreated cells) which were considered as 100% of viability.
Curves were adjusted using a sigmoidal dose-response (variable slope) equation, and EC50 values were obtained from the equation: Y=Bottom+(Top−Bottom)/(1+10^((Log EC50−X)*HillSlope)) where X is the logarithm of concentration and Y is the response. Y starts at Bottom and goes to Top with a sigmoid shape.

Work on Nc1ccn([C@@H]2O[C@H](CO)[C@@H](O)C2(F)F)c(=O)n1 [gemcitabine] yielded an EC50 of 8.36 nM.
